Experimental data published in publication PMC10970486 (Bioconjugate chemistry, 2024).

Molecular target: MelBSt (melibiose permease) (Salmonella enterica, UniProt P30878)
Experiment: displacement of D2G, Trp to dansyl FRET
Type: binding
Settings: excess melibiose added after D2G; extract in DDM, TMG-A13 or TMG-P10,8

MelBSt (melibiose permease), sequence (P30878 whole entry): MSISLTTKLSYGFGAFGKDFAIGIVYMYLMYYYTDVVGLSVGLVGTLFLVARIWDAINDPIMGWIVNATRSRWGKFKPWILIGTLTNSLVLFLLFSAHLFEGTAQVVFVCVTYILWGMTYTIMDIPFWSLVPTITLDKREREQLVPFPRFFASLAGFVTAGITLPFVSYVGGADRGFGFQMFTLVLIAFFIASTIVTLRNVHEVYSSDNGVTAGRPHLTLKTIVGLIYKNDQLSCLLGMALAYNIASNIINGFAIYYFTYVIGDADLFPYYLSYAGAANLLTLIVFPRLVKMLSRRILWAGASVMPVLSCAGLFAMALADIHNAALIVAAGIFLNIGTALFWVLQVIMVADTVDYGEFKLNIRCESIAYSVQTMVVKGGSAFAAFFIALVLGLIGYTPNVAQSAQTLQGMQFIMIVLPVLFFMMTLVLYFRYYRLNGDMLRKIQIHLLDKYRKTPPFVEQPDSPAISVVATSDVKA

OC[C@H]1O[C@H](OC[C@H]2OC(O)[C@H](O)[C@@H](O)[C@@H]2O)[C@H](O)[C@@H](O)[C@H]1O (stereo partly shown) [melibiose]
displacement of D2G, Trp to dansyl FRET: excess melibiose replaces the dansyl ligand with the non-fluorescent substrate in the active site
